Assay results published in patent US10065990B2, “Cyclic peptide compound, and preparation method, pharmaceutical composition and use thereof” (HANGZHOU GUANYU BIO-MEDICAL CO., LTD, priority 2013, dated 2018).
Like-named read-outs stand apart in the source and are kept apart here.

Tests used:
[1] = system: lncap (prostate cancer cells); assay: MTT cancer cell growth inhibition; assay type: cell-based; conditions: MTT, 72 hours incubation, read-out: GI50 lnca
Excerpt: (§1) MTT assay principle is yellow MTT can penetrate membrane into the cell, succinic dehydrogenase of the mitochondria in living cells can make exogenous MTT reduction of insoluble in water of blue-violet acicular formazan for crystallization and deposition in the cell, crystallization can be dissolved dimethyl sulfoxide (DMSO) solution, detected its absorbance at 490 nm/570 nm wavelength by enzyme-linked immunosorbent assay, which can reflect the number of cells.
(§2) Using DMEM+10% FBS culture medium or using 1640+10% FBS culture, respectively.
(§3) a) Cells were seeded in 96-well plates with the inoculation of 1500/well, 190 μl/hole, 37° C., 5% of CO2 incubator overnight;
(§4) b) The next day each well was added 10 μl of different drugs. The final concentration of drug was 10^−5˜10^−10M, three parallel holes; 37° C., 5% CO2 culture incubator for 72 hours incubation;
(§5) c) Per well was added 20 μl 5 mg/ml of MTT, 37° C., 5% CO2 culture incubator for 4 hours incubation;
(§6) d) The supernatant was discarded. Each well was added 100 μl of DMSO and oscillation;
(§7) e) 570 nm readings. Calculate cell viability. GI50 calculation based on the results.

[2] = system: Huh-7 (human hepatoma cells); assay: MTT cancer cell growth inhibition; assay type: cell-based; conditions: Homo sapiens, Huh-7, 72 h, MTT, 72 hours incubation, Huh-7 cells; read-out: GI50 Huh-7
Excerpt: as §1, §2, §3, §4, §5, §6, §7

[3] = system: KBM-5 (human chronic myelogenous leukemia); assay: MTT cancer cell growth inhibition; assay type: cell-based; conditions: Homo sapiens, KBM5, 72 h, MTT, 72 hours incubation, KBM-5 cells; read-out: GI50 KBM-5
Excerpt: as §1, §2, §3, §4, §5, §6, §7

[4] = system: U937 (human leukemia cells); assay: MTT cancer cell growth inhibition; assay type: cell-based; conditions: Homo sapiens, U-937, 72 h, MTT, 72 hours incubation, read-out: GI50 U93
Excerpt: as §1, §2, §3, §4, §5, §6, §7

[5] = system: K562 (human leukemia cells); assay: MTT cancer cell growth inhibition; assay type: cell-based; conditions: MTT, 72 hours incubation, K562 cells, read-out: GI50 K562
Excerpt: as §1, §2, §3, §4, §5, §6, §7

[6] = system: MOLT-4 (human acute lymphoblastic leukemia cells); assay: MTT cancer cell growth inhibition; assay type: cell-based; conditions: MTT, 72 hours incubation, read-out: GI50 Mol
Excerpt: as §1, §2, §3, §4, §5, §6, §7

[7] = system: Bel-7402 (human hepatoma cells); assay: MTT cancer cell growth inhibition; assay type: cell-based; conditions: MTT, 72 hours incubation, Bel-7402 cells, read-out: GI50 Bel-7402
Excerpt: as §1, §2, §3, §4, §5, §6, §7

[8] = system: KBM5-T315I (human chronic myelogenous leukemia); assay: MTT cancer cell growth inhibition; assay type: cell-based; conditions: MTT, 72 hours incubation, KBM5-T315I cells, read-out: GI50 KBM5-T315I
Excerpt: as §1, §2, §3, §4, §5, §6, §7

[9] = system: HCC827 (human non-small cell lung cancer cells); assay: MTT cancer cell growth inhibition; assay type: cell-based; conditions: Homo sapiens, HCC827, 72 h, MTT, 72 hours incubation, HCC827 cells; read-out: GI50 HCC827
Excerpt: as §1, §2, §3, §4, §5, §6, §7

[10] = system: SGC-7901 (human gastric cancer cells); assay: MTT cancer cell growth inhibition; assay type: cell-based; conditions: Homo sapiens, SGC-7901, 72 h, MTT, 72 hours incubation, SGC-7901 cells; read-out: GI50 SGC-7901
Excerpt: as §1, §2, §3, §4, §5, §6, §7

[11] = system: BGC-823 (human gastric cancer cells); assay: MTT cancer cell growth inhibition; assay type: cell-based; conditions: Homo sapiens, BGC-823, 72 h, MTT, 72 hours incubation, read-out: GI50 BG
Excerpt: as §1, §2, §3, §4, §5, §6, §7

[12] = system: H1975 (non-small cell lung adenocarcinoma); assay: MTT cancer cell growth inhibition; assay type: cell-based; conditions: Homo sapiens, NCI-H1975, 72 h, MTT, 72 hours incubation, H1975 cells; read-out: GI50 H1975
Excerpt: as §1, §2, §3, §4, §5, §6, §7

[13] = system: HT1080 (human fibrosarcoma cells); assay: MTT cancer cell growth inhibition; assay type: cell-based; conditions: MTT, 72 hours incubation, read-out: GI50 HT1
Excerpt: as §1, §2, §3, §4, §5, §6, §7

[14] = system: Hela (human cervical cancer cells); assay: MTT cancer cell growth inhibition; assay type: cell-based; conditions: Homo sapiens, HeLa, 72 h, MTT, 72 hours incubation, read-out: GI50 Hela
Excerpt: as §1, §2, §3, §4, §5, §6, §7

[15] = system: DU145 (human prostate cancer cells); assay: MTT cancer cell growth inhibition; assay type: cell-based; conditions: MTT, 72 hours incubation, read-out: GI50 Du1
Excerpt: as §1, §2, §3, §4, §5, §6, §7

[16] = system: A549 (human lung cancer cells); assay: MTT cancer cell growth inhibition; assay type: cell-based; conditions: MTT, 72 hours incubation, read-out: GI50 A54
Excerpt: as §1, §2, §3, §4, §5, §6, §7

[17] = system: MCF-7 (human breast cancer cells); assay: MTT cancer cell growth inhibition; assay type: cell-based; conditions: Homo sapiens, MCF7, 72 h, 72 hours incubation, read-out: GI50 MCF
Excerpt: as §1, §2, §3, §4, §5, §6, §7

[18] = system: N-87 (human gastric cancer cells); assay: MTT cancer cell growth inhibition; assay type: cell-based; conditions: Homo sapiens, 72 h, MTT, 72 hours incubation, N-87 cells; read-out: GI50 N-87
Excerpt: as §1, §2, §3, §4, §5, §6, §7

[19] = system: PANC-1 (Pac-1, human pancreatic cancer cells); assay: MTT cancer cell growth inhibition; assay type: cell-based; conditions: Homo sapiens, PANC-1, 72 h, MTT, 72 hours incubation, read-out: GI50 PAN
Excerpt: as §1, §2, §3, §4, §5, §6, §7

[20] = system: MDA-MB-231 (breast cancer cells); assay: MTT cancer cell growth inhibition; assay type: cell-based
Excerpt: as §1, §2, §3, §4, §5, §6, §7

HDAC7 = molecular target: T1, HDAC7 (Homo sapiens, UniProt Q8WUI4); assay: HDAC biochemical activity measurement (fluorescent substrate deacetylation);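 note: fluorogenic deacetylation assay using acetyl-lysine substrate at 20 µM, enzyme and compound incubated 30 min at 37 °C, then developer added, fluorescence read at 360/460 nm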; conditions: HDAC7; 37° C. 30 minutes
T1 sequence (Q8WUI4 1-952): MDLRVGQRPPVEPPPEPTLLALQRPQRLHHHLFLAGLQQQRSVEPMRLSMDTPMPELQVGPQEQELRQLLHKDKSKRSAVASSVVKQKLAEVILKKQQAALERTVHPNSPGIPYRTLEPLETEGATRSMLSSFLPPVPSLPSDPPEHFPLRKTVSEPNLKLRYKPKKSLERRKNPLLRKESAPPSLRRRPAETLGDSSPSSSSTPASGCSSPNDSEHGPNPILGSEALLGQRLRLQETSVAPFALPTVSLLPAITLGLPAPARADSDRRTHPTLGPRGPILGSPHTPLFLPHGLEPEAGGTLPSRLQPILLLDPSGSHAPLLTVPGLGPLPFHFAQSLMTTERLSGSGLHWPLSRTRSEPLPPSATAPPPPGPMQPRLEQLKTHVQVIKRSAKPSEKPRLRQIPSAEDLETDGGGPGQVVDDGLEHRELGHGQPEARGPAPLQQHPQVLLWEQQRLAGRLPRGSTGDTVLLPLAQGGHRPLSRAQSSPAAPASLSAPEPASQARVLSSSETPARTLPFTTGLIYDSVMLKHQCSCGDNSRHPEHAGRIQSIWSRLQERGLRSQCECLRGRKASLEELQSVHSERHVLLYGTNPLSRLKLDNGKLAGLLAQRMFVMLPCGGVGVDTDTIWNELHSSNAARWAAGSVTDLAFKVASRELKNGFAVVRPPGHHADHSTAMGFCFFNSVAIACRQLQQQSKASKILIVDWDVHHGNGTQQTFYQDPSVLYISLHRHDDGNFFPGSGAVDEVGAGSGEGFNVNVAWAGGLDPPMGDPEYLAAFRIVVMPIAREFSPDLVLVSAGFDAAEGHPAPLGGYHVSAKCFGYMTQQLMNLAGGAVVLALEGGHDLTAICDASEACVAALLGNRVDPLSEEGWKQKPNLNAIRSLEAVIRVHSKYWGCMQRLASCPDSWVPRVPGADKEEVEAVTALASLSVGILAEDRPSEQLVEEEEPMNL

[21] = Homo sapiens, LNCaP, 72 h, lncap cells
[22] = Homo sapiens, MOLT-4, 72 h, MOLT-4 cells
[23] = Homo sapiens, HT-1080, 72 h, HT1080 cells
[24] = Homo sapiens, DU-145, 72 h, DU145 cells
[25] = Homo sapiens, A549, 72 h, A549 cells
[26] = Homo sapiens, MDA-MB-231, 72 h, read-out: GI50 MDA-MB-231, MTT, 72 hours incubation, MDA-MB-231 cells

Row | SMILES | GI50 [1, 21] | GI50 [2] | GI50 [3] | GI50 ([4]; U937 cells) | GI50 ([5]; Homo sapiens, K562, 72 h) | GI50 [6, 22] | GI50 ([7]; Homo sapiens, Bel-7402, 72 h) | GI50 ([8]; Homo sapiens, 72 h) | GI50 [9] | GI50 [10] | GI50 ([11]; BGC-823 cells) | GI50 [12] | GI50 [13, 23] | GI50 ([14]; Hela cells) | GI50 [15, 24] | GI50 [16, 25] | GI50 ([17]; MCF-7 cells) | GI50 [18] | GI50 [20, 26] | IC50 HDAC7 (HDAC7) | further results
1 | C=C1NC(=O)c2cc(F)cc(n2)CNC(=O)C[C@@H](/C=C/CCS)OC(=O)[C@H](C(C)C)NC1=O [Compound 132] |  | 26 nM | 24 nM |  |  |  |  |  | 52 nM | 28 nM |  | 28 nM |  |  |  |  |  | 57 nM |  | no activity | GI50 [1]: 30 nM; GI50 [4]: 40 nM; GI50 [5]: 48 nM; GI50 [6]: 30 nM; GI50 [7]: 77 nM; GI50 [8]: 43 nM; GI50 [11]: 40 nM; GI50 [13]: 30 nM; GI50 [14]: 20 nM; GI50 [15]: 150 nM; GI50 [16]: 20 nM; GI50 [17]: 100 nM; GI50 [19]: 70 nM; GI50 ([20]; read-out: GI50 MDA-MB-231, MTT, 72 hours incubation, MDA-MB-231 cells): 16 nM
2 | C=C1NC(=O)c2nc(ccc2SC)CNC(=O)C[C@@H](/C=C/CCSC(C)=O)OC(=O)[C@H](C)NC1=O [Compound 210] | 50 nM | 22 nM | 52 nM | 20 nM | 86 nM | 50 nM | 47 nM | 49 nM | 56 nM | 105 nM | 10 nM | 25 nM | 20 nM | 30 nM | 30 nM | 50 nM | 30 nM | 27 nM | 72 nM | no activity | GI50 ([19]; PANC-1 cells): 50 nM
3 | C/C=C1\NC(=O)c2cc(F)cc(n2)CNC(=O)C[C@@H](/C=C/CCS)OC(=O)[C@H](C(C)C)NC1=O [Compound 107] |  | 24 nM | 72 nM |  | 38 nM |  | 53 nM | 41 nM | 13 nM | 27 nM |  | 57 nM |  |  |  |  |  | 35 nM | 27 nM | no activity | GI50 ([1]; Homo sapiens, LNCaP, 72 h): 30 nM; GI50 [4]: 30 nM; GI50 ([6]; Homo sapiens, MOLT-4, 72 h): 30 nM; GI50 [11]: 30 nM; GI50 ([13]; Homo sapiens, HT-1080, 72 h): 80 nM; GI50 [14]: 60 nM; GI50 ([15]; Homo sapiens, DU-145, 72 h): 30 nM; GI50 ([16]; Homo sapiens, A549, 72 h): 40 nM; GI50 [17]: 30 nM; GI50 [19]: 80 nM

The next lines start with results.

Row | GI50 [1, 21] | GI50 [2] | GI50 [3] | GI50 ([4]; U937 cells) | GI50 ([5]; Homo sapiens, K562, 72 h) | GI50 [6, 22] | GI50 ([7]; Homo sapiens, Bel-7402, 72 h) | GI50 ([8]; Homo sapiens, 72 h) | GI50 [9] | GI50 [10] | GI50 ([11]; BGC-823 cells) | GI50 [12] | GI50 [13, 23] | GI50 ([14]; Hela cells) | GI50 [15, 24] | GI50 [16, 25] | GI50 ([17]; MCF-7 cells) | GI50 [18] | GI50 [20, 26] | IC50 HDAC7 (HDAC7) | SMILES | further results
4 | 50 nM | 81 nM | 42 nM | 50 nM | 73 nM | 70 nM | 35 nM | 16 nM | 51 nM | 78 nM | 50 nM | 49 nM | 70 nM | 80 nM | 10 nM | 90 nM | 40 nM | 18 nM | 79 nM | no activity | C/C=C1\NC(=O)c2nc(ccc2SC)CNC(=O)C[C@@H](/C=C/CCSC(=O)CC)OC(=O)[C@H](C(C)C)NC1=O [Compound 162] | GI50 ([19]; PANC-1 cells): 70 nM
5 | 20 nM | 59 nM | 33 nM | 30 nM | 81 nM | 60 nM | 72 nM | 38 nM | 13 nM | 41 nM | 40 nM | 29 nM | 20 nM | 70 nM | 20 nM | 40 nM | 30 nM | 38 nM | 71 nM | no activity | C/C=C1\NC(=O)c2ccc(SC)c(n2)CCNC(=O)C[C@@H](/C=C/CCSC(C)=O)OC(=O)[C@H](C(C)C)NC1=O [Compound 225] | GI50 ([19]; PANC-1 cells): 30 nM
